The test system of series [1] is 5-HT2B receptors of pulmonary arteries in pigs. In words: 5-HT-induced, 5-HT2B-mediated relaxing of PGF2α-pre-contracted pulmonary arteries in pigs (functional receptor assay). Type of series: cell-based. The conditions noted are these: under physiological conditions; not antagonized by maximum 5-HT concentrations.
From the text: (§1) In this case, the pA2 value reflects the negatively decade logarithm of the concentration of an antagonist, which makes it necessary to double the agonist concentration in order to restore the initial effect of the agonist without antagonists.
The vascular reaction in the preparations of pulmonary arteries in pigs, which are pre-contracted by means of PGF2α, were used as an assay for the specific interaction with 5-HT2B receptors (see FIG. 1A). […] Ketanserin is a standard-5HT2A antagonist, SB204741 is a standard-5-HT2B antagonist.
Series [2] can be described thus: Stability of lisuride dissolved in water (HPL chromatogram). The conditions noted are these: room temperature, FIG. 3A.
Series [3] concerns the target T1, 5-HT2A receptors of coronary arteries in pigs (Sus scrofa, UniProt P50129).
T1 construct: 5-HT2A-mediated contraction of the coronary arteries in pigs; from tissue; host or cells: isolated pig coronary artery
In words: Inhibition of 5-HT2A-mediated, 5-HT-induced contraction of coronary arteries in pigs. Type of series: cell-based. The conditions noted are these: n in own column.
From the text: as §1

Series [4] relates to Human smooth muscle cells. In words: 5-HT-stimulated cell growth, 3H-thymidine uptake. Type of series: cell-based. The settings on record: 10 μmol/l test substance, 5-HT 10-8 mol/l, 24 hours; FIG. 2.
Method: To determine the cell growth, 3H-thymidine (Amersham) was then added to the cell cultures, and the latter were incubated for 24 hours. After the adhesion of the cells, the culture medium was replaced by a standard medium with 0.2% fetal calf serum to stop growth and incubated again for 48 hours.
In order to test antiproliferative actions of the described substances, the cell cultures were then pre-incubated first at a concentration of 10 μmol/l of the test substances. […] To measure the growth of cells, 3H-thymidine (Amersham) was then added to the cultures, and the latter was incubated for 24 hours. Then, 2 incubations were carried out in iced common salt solution with a phosphate buffer, and then a 30-minute incubation was carried out in iced 10% trichloroacetic acid at 4° C. The cells were then incubated in 0.1 molar NaOH solution (0.5 ml/incubation vessel). After neutralization with acetic acid, the 3H-thymidine uptake was measured with liquid scintillation (as 3× determination).
In series [5] the test system is 5-HT-induced effects in rats. The settings on record: cited from earlier work.
Series [6] is described as follows: Antioxidative action / radical trap (binding of oxygen radicals).
From the text: Because of the small amounts of substances contained in the samples and the short life of the reaction products, it was not possible to isolate them for structural clarification.
Series [7] concerns monocrotaline-induced pulmonary high pressure in rats. In words: Monocrotaline-induced pulmonary high pressure in rats. Type of series: in vivo, male Sprague-Dawley rats. The conditions noted are these: MCT 60 mg/kg s.c.; treatment bid via stomach tube days 15-28; measured day 28; lisuride 0.25 mg/kg, terguride 2.5 mg/kg; average ± SEM, N = 6. An excerpt:
Monocrotaline (MCT) is a toxin from plants of the Crotalaria species, which damages the endothelial cells of the pulmonary arteries after a single injection in rats, with the following hypertrophy of the smooth vascular musculature and persistent severe pulmonary high pressure. The MCT-induced pulmonary hypertension in rats is a well-established and validated model of human pulmonary hypertension, and all now-approved therapeutic agents have shown an action in this model, at least when they were used before the toxically-induced tissue remodeling.
MCT (60 mg/kg) was administered subcutaneously as a single injection in male Sprague-Dawley rats, and an identical volume of isotonic common salt solution was injected into the control animals. […]
On day 28 of the experiment, two hours after the last administration of substance, the animals were narcotized with use of pentobarbital. […] The mean arterial system pressure and the systolic pressure were measured in the right heart ventricle. […]
The s.c. injection of MCT, as described above, results in severe damage of the pulmonary vascular endothelium as well as excessive production of connective tissue and development of a pulmonary hypertension. Accumulation of collagen, measured as hydroxyproline content of the pulmonary tissue and increase of the right-ventricular systolic pressure reflect the described structural and functional changes.

T1 sequence (P50129 whole entry): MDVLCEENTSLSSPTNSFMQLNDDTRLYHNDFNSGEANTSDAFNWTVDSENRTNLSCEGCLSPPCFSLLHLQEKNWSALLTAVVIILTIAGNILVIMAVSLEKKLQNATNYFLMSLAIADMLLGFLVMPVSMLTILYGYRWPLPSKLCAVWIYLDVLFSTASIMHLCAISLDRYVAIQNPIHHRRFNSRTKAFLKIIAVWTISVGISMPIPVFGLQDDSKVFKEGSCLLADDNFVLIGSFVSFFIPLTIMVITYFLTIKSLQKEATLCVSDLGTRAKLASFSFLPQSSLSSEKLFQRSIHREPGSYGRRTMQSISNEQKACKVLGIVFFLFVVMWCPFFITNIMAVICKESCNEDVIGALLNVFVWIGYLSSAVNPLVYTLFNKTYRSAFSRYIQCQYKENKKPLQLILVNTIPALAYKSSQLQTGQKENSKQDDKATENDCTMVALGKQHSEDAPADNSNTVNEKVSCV

`CCN(CC)C(=O)N[C@H]1C=C2c3cccc4[nH]cc(c34)C[C@H]2N(C)C1` [Lisuride, 3-(9,10-didehydro-6-methylergoline-8alpha-yl)-1,1-diethylurea]: the “type of antagonism of the 5-HT2B receptor” value in series [1] is listed as “irreversible antagonist”. The “stability dissolved in water” value in series [2] is “quickly broken down”.

As to `CCNC(=O)NC1C=C2c3cccc4[nH]cc(c34)CC2N(C)C1` (stereo not drawn) [N″-Monodesethyllisuride], in series [3], the “5-HT2A pA2” value was 8.29 ± 0.03.

For `CCN(CC)C(=O)N[C@H]1C[C@@H]2c3cccc4[nH]cc(c34)C[C@H]2N(C)C1` [Terguride, trans-dihydrolisuride], the “cell proliferation (3H-thymidine uptake)” value in series [4] is on record as “Reduction of cell proliferation”. Moreover, in series [5] (rats [Hauso 2007]), the “5-HT-induced weight increase of the heart and liver” value is listed as “prevented”; the “behavior abnormalities and fibrotic skin changes at the injection sites of 5-HT” value is “suppressed”. For the same compound, in series [5] (rats, daily 5-HT over 4 months [Hauso 2007]), the “development of pulmonary valve failure” value is listed as “not detectable”. Moreover, the “free oxygen radicals taken up by an individual molecule” value in series [6] was “up to 4”. Moreover, the “Systolic Right-Ventricular Pressure (RVPsys)” value in series [7] came out at 39 ± 3 mmHG.

(Values after patent US20140058108A1 (SINOXA PHARMA UG, priority 2010, published 2014).)
